Converted amounts (≈) assume the structure as drawn. Read-outs that look alike come from different tables or passages of the source. Where a SMILES comes first, the peptide text is derived from it. Bridges are numbered along the chain shown (N, C = ends). [ ]: non-standard residue; d: D form. The star is where a group is joined. Ileψ(thiazoline)Cys = CC[C@H](C)[C@H](N)C1=N[C@H](C(=O)*)CS1; dOrn = NCCC[C@@H](N)C(=O)O
What was measured:
Type in all cases: cell-based
Acinetobacter baumannii = system: Acinetobacter baumannii
Description: (§1) The strains used for susceptibility testing include both culture collection strains and clinical isolates are recited below. Their known relevant genotypes and origin have been described by Khan et al. supra.
(§2) The MICs of alginate oligomers, bacitracin and alginate oligomer conjugates thereof were determined for isolates V2, V3, VS, V19, E68 and E75 using the broth microdilution method in accordance with standard guidelines (CLSI 2012). Test organisms were suspended in Mueller Hinton cation adjusted (MH) broth (100 μL, 1-5×10^4 CFU/mL) and incubated in 96-well microtitre plates in serial two-fold dilutions of the test compounds. The MIC was defined as the lowest concentration of test compound that produced no visible growth after 16-20 hours.

Escherichia coli = system: Escherichia coli
Description: as §1, §2

Klebsiella pneumoniae = system: Klebsiella pneumoniae
Description: as §1, §2

[1] = system: Pseudomonas aeruginosa (301), MDR-PSA isolate
Description: as §1, §2

V33 = assay: MIC, broth microdilution (CLSI 2012), isolate V33; details: Batch 1; MH broth, 16-20 hours
[2] = system: Staphylococcus aureus (Gram positive); assay: Antimicrobial activity (MIC) against Gram positive species; details: summary in words
Description: as §1, §2

[3] = system: Gram negative species tested (Pseudomonas aeruginosa, Klebsiella pneumonia, Escherichia coli and Acinetobacter baumannii); assay: Antimicrobial activity (MIC) against Gram negative species; details: summary in words
Description: as §1, §2

Structure (SMILES): CC[C@H](C)[C@H](N)C1=N[C@H](C(=O)N[C@@H](CC(C)C)C(=O)N[C@H](CCC(=O)O)C(=O)N[C@H](C(=O)N[C@H]2CCCCNC(=O)[C@H](CC(N)=O)NC(=O)[C@@H](CC(=O)O)NC(=O)[C@H](Cc3cnc[nH]3)NC(=O)[C@@H](Cc3ccccc3)NC(=O)[C@H]([C@@H](C)CC)NC(=O)[C@@H](CCCN)NC2=O)[C@@H](C)CC)CS1 [Bacitracin, bacitracin] ({Ileψ(thiazoline)Cys}-L[dE]IK[dOrn]I[dF]H[dD]N; lactam 4-C)
- MIC V19 (Acinetobacter baumannii): 640 µg/mL (≈ 450 µM)
- MIC V19 (Acinetobacter baumannii; Batch 1, MH broth, 16-20 hours): >128 µg/mL
- MIC V5 (Escherichia coli): 640 µg/mL (≈ 450 µM)
- MIC V5 (Escherichia coli; Batch 1, MH broth, 16-20 hours): >128 µg/mL
- MIC V3 (Klebsiella pneumoniae): >8192 µg/mL
- MIC V3 (Klebsiella pneumoniae; Batch 1, MH broth, 16-20 hours): >128 µg/mL
- MIC V2 ([1]; 301), MDR-PSA isolate): >8192 µg/mL
- MIC V2 ([1]; Batch 1, MH broth, 16-20 hours): >128 µg/mL
- MIC V33 (V33): >128 µg/mL
- antimicrobial activity against Staphylococcus aureus (Gram positive) [2]: high antimicrobial activity
- antimicrobial activity against the Gram negative species tested [3]: but not the Gram negative species tested
